Measurements as given in patent US4621081A, “Cephalosporin antibiotics” (Glaxo Group Limited, priority 1978, dated 1986).

What was measured:
[1] = tested on: strains of Staphylococcus aureas; assay: Activity against strains of Staphylococcus aureas; format: cell-based
[2] = Effect of human serum on antibacterial properties; format: cell-based
[3] = Effect of increased inocula; format: cell-based
Nephrotoxicity in rats = format: in vivo; conditions: dosages of 2.0 g/kg
[4] = Serum levels and serum half-life in primates after intramuscular injection; format: in vivo
[5] = Bactericidal action relative to minimum inhibitory concentration; format: cell-based
gram-negative bacteria = assay: Experimental infections in mice with gram-negative bacteria; format: in vivo
[6] = General (broad spectrum) antibiotic activity; format: cell-based
[7] = Acute toxicity tests in mice; conditions: mouse, in vivo
[8] = Distribution in the bodies of small rodents after subcutaneous injection; format: in vivo
strains of Pseudomonas = assay: Activity against strains of Pseudomonas; format: cell-based
[9] = tested on: strains of Pseudomonas aeruginosa; assay: Experimental infections in mice with strains of Pseudomonas aeruginosa; format: in vivo; conditions: experimental infection

Structure (SMILES)	activity against strains of Staphylococcus aureas [1]	antibacterial properties impaired by human serum [2]	effect of increased inocula against the compound [3]	nephrotoxicity in rats (Nephrotoxicity in rats)	half-life in man (probability, from serum half-life in primates) ([4]; man, inferred from serum half-life in primates)	serum levels in primates ([4]; primates, intramuscular injection)	bactericidal at concentrations close to the minimum inhibitory concentration [5]	treatment of experimental infections in mice with gram-negative bacteria (gram-negative bacteria)	general antibiotic properties / antibiotic activity [6]	LD50 [7] [mg/kg]	distribution in the bodies of small rodents [8]	therapeutic levels in small rodents [8]	activity against strains of Pseudomonas (strains of Pseudomonas)	protection against strains of Pseudomonas aeruginosa [9]	protection compared with the treatment with an aminoglycoside such as amikacin ([9]; versus an aminoglycoside such as amikacin)
C[n+]1ccc(SCC2=C(C(=O)[O-])N3C(=O)[C@@H](NC(=O)/C(=N\OC4(C(=O)O)CCC4)c4csc(N)n4)[C@H]3SC2)cc1 [compound of formula (Ib), (6R,7R)-7-[(Z)-2-(2-aminothiazol-4-yl)-2-(1-carboxycyclobut-1-oxyimino)acetamido]-3-[(1-methylpyridinium-4-yl)-thiomethyl]ceph-3-em-4-carboxylate]	useful activity	not impaired	low	No nephrotoxicity was observed	comparatively long half-life	high and long lasting serum levels	rapidly bactericidal	successfully treated	possesses to an outstanding extent the general antibiotic properties	> 1000	well distributed	useful therapeutic levels	excellent activity	excellent protection	comparable
C[n+]1ccc(SCC2=C(C(=O)[O-])N3C(=O)[C@@H](NC(=O)/C(=N\OC(C)(C)C(=O)O)c4csc(N)n4)[C@H]3SC2)cc1 [(6R,7R)-7-[(Z)-2-(2-aminothiazol-4-yl)-2-(2-carboxyprop-2-oxyimino)acetamido]-3-[(1-methylpyridinium-4-yl)-thiomethyl]ceph-3-em-4-carboxylate]	–	–	–	–	–	–	–	–	not dissimilar properties to the compound of formula (Ib)	–	–	–	–	–	–
